Laboratory results as given in ChEMBL document CHEMBL1201862, “PubChem BioAssay data set” (2004).
Calls of active or inactive are those of the source.

Legend:
[1] = Luminescence Cell-Based Dose Retest to Confirm Inhibitors of Cancer Stem Cells. [Related pubchem assays (depositor defined):AID2717, AID2721]; format: functional; settings: Homo sapiens
[2] = cells; format: functional, cell-based
[3] = molecular target: T1, Nuclear receptor subfamily 0 group B member 1 (Homo sapiens, UniProt P51843); format: functional, cell-based;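 also: HEK293T cells transfected with SF-1 and DAX-1 plus StAR promoter luciferase reporter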
T1 sequence (P51843 whole entry): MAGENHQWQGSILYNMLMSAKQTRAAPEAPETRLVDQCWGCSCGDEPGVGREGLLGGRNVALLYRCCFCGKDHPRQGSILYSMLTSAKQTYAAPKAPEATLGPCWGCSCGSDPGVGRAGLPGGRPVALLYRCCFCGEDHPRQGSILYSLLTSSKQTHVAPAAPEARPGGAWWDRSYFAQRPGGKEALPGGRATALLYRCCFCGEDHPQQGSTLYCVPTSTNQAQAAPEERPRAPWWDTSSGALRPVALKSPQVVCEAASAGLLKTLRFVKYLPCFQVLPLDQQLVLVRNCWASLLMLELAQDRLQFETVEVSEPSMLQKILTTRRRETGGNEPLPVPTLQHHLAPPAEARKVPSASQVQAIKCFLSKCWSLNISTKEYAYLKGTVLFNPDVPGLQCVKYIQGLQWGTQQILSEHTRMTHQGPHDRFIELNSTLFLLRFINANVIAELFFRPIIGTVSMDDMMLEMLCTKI

[4] = molecular target: T2, Fructose-bisphosphate aldolase (Mycobacterium tuberculosis, UniProt P9WQA3); assay: Fluorescence-based biochemical high throughput dose response assay for inhibitors of the fructose-bisphosphate aldolase (FBA) of M. tuberculosis.; format: functional
T2 sequence (P9WQA3 whole entry): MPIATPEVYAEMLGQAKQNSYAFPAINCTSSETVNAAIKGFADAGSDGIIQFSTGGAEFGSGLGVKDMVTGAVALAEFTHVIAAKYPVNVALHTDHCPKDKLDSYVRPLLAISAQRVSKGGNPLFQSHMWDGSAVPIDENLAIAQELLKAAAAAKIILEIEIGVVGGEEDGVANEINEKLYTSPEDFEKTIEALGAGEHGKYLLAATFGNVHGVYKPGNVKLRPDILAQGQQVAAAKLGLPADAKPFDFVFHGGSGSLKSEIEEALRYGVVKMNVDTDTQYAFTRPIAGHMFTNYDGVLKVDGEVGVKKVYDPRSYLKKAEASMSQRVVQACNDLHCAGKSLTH

[5] = tested on: Vero; assay: Vero cell toxicity, dose response, cytotoxicity control, plate reader, cherry-pick samples (AID 687020); format: functional, cell-based; settings: Chlorocebus sabaeus
[6] = molecular target: Steroidogenic factor 1 (Homo sapiens, UniProt Q13285); assay: Counterscreen for inverse agonists of the liver receptor homolog-1 (LRH-1; NR5A2): Luminescence-based cell-based high throughput dose response assay to identify inverse agonists of the Steroidogenic Factor 1 Nuclear Receptor (SF1; NR5A1).; format: functional
[7] = molecular target: Nuclear receptor subfamily 5 group A member 2 (Homo sapiens, UniProt O00482); format: functional, cell-based;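 also: HEK293T cells transfected with LRH-1 and a StAR promoter luciferase reporter; potency for inhibitors that lower LRH-1 driven reporter light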
[8] = StAR promoter reporter inhibition counter-screen, dose response, counter-screen for LRH-1 inverse agonist project, cell-based, luminescence, luciferase reporter (AID 651969); format: functional
[9] = HEp-2 cell cytotoxicity, dose response, cytotoxicity control for RSV inhibitor project, HTS (AID 2410); format: functional; settings: human respiratory syncytial virus
[10] = growth suppression of PTEN-null colon cells, dose response, cell-based, HCT116 PTEN knockout (AID 1047); format: functional;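 also: HCT116 colon tumor cells with PTEN knocked out; cells exposed to compound for 60 hours before readout; potency for loss of cell viability measured by luminescence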
[11] = molecular target: Cytochrome P450 2C9 (Homo sapiens, UniProt P11712)
[12] = molecular target: T3, Sentrin-specific protease 1 (Homo sapiens, UniProt Q9P0U3); assay: Dose response confirmation of small molecule inhibitors of the catalytic domain of the SUMO protease, SENP1 in a FRET assay.; format: functional; settings: read-out: IC50_Mean
T3 sequence (Q9P0U3 whole entry): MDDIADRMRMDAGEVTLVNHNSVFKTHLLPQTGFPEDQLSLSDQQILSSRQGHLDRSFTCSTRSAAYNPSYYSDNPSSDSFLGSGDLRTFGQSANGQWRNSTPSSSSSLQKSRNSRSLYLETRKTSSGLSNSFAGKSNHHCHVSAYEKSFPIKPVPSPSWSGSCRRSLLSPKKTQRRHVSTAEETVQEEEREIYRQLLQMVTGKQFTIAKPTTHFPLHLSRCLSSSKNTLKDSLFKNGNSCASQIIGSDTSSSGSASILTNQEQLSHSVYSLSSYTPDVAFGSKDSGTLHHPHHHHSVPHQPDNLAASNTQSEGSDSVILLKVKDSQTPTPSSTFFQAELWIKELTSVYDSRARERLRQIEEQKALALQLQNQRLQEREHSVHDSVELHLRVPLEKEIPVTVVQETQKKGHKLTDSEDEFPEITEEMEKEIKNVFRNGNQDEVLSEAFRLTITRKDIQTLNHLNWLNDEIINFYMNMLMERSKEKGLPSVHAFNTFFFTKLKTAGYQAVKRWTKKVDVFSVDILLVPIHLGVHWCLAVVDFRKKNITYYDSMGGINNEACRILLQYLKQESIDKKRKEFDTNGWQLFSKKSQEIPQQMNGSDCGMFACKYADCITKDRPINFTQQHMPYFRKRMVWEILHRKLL

[13] = cells; format: functional, cell-based; settings: HEK-CNG
[14] = molecular target: T4, Galanin receptor type 3 (Homo sapiens, UniProt O60755); assay: Fluorescence-based cell-based primary high throughput dose response assay to identify antagonists of the Galanin Receptor 3 (GalR3).; format: functional
T4 sequence (O60755 whole entry): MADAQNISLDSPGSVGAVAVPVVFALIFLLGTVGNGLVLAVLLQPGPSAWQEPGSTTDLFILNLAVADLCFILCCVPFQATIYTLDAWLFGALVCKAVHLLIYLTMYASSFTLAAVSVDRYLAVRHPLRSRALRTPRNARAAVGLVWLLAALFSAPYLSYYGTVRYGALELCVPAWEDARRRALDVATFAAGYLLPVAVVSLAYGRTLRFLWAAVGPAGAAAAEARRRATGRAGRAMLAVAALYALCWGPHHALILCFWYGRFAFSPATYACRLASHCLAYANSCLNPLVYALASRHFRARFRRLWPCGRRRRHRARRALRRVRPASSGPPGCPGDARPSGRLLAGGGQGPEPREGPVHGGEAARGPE

[15] = Shn3 3'UTR reporter inhibitors, dose response, cell-based, Clone20 osteoblasts, firefly luciferase, cherry-picked (AID 624132); format: functional;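 also: firefly luciferase luminescence from reporter carrying the Shn3 3'UTR in osteoblasts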
[16] = control 3'UTR Renilla luciferase suppression, dose response, counter-screen for Shn3 inhibitor project, cell-based, Clone20-Shn3RL, cherry-picked (AID 624133); format: functional
[17] = HepG2 cell cytotoxicity, dose response, cytotoxicity control for Shn3 inhibitor project, CellTiter-Glo, cherry-picked (AID 624134); format: functional, cell-based
[18] = molecular target: Photoreceptor-specific nuclear receptor (Homo sapiens, UniProt Q9Y5X4); format: functional, cell-based;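 also: CHO-S cells with Gal4-NCOR and VP16-NR2E3 two-hybrid luciferase reporter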
[19] = molecular target: T5, High affinity choline transporter 1 (Homo sapiens, UniProt Q9GZV3); assay: CHT inhibitors, dose response, cell-based, 10-point CRC, membrane potential dye (AID 588401); format: functional;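 also: membrane potential dye fluorescence of choline-evoked depolarization via CHT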
T5 sequence (Q9GZV3 whole entry): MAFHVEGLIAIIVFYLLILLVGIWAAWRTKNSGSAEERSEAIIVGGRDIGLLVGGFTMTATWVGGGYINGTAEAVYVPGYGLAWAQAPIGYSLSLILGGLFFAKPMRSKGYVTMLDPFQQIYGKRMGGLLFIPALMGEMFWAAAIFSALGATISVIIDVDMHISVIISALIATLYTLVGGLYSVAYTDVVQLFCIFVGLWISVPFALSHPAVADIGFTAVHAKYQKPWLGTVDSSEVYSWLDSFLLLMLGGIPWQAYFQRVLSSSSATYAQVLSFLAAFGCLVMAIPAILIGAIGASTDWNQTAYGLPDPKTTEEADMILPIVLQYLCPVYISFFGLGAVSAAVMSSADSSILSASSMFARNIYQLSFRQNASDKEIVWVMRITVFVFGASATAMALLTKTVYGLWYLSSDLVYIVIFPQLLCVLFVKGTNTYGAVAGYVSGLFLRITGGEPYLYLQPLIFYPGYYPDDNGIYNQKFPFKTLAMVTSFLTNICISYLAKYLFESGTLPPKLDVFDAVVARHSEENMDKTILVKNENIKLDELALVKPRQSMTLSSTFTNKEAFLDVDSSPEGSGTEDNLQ

[20] = molecular target: T6, CAAX prenyl protease 2 (Saccharomyces cerevisiae S288c, UniProt Q03530); format: biochemical
T6 sequence (Q03530 whole entry): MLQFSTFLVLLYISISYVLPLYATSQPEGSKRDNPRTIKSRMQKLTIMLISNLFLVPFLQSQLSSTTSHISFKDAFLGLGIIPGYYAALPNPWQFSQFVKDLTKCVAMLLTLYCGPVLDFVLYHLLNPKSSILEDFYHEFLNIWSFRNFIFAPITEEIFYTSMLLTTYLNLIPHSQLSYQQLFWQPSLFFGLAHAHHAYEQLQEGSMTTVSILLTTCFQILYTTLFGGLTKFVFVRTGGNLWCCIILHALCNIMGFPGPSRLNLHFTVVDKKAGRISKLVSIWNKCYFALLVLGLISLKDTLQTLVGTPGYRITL

[21] = molecular target: T7, Ubiquitin-conjugating enzyme E2 N (Homo sapiens, UniProt P61088); format: functional;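 also: Dose-response confirmation in a TR-FRET assay detecting UBC13-driven polyubiquitin chain formation, inhibition measured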
T7 sequence (P61088 whole entry): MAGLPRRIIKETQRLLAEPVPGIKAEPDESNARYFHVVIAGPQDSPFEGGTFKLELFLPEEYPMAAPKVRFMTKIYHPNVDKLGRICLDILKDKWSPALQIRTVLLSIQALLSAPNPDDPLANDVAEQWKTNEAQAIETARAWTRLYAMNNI

[22] = molecular target: T5, High affinity choline transporter 1; assay: CHT inhibitors, dose response, cell-based, 5-point CRC, membrane potential dye (AID 504840); format: functional
[23] = tested on: P388/ADR; assay: cells; format: functional; settings: Mus musculus
[24] = tested on: SN12K1; assay: cells; format: functional; settings: Homo sapiens
[25] = tested on: P388; assay: cells; format: functional; settings: Mus musculus

Sequence of Steroidogenic factor 1 (Q13285 whole entry): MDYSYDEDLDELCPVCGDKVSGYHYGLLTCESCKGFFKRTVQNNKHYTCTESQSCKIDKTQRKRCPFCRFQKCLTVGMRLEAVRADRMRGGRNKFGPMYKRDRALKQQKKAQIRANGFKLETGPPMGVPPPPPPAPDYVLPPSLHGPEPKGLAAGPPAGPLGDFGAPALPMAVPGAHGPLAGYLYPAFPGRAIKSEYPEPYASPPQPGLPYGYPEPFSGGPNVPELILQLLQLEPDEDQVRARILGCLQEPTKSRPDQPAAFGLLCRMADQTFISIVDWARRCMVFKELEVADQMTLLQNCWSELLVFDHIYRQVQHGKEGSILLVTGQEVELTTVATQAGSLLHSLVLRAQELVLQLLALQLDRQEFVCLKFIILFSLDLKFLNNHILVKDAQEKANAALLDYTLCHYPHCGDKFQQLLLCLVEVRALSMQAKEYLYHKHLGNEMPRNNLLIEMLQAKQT
Sequence of Nuclear receptor subfamily 5 group A member 2 (O00482 whole entry): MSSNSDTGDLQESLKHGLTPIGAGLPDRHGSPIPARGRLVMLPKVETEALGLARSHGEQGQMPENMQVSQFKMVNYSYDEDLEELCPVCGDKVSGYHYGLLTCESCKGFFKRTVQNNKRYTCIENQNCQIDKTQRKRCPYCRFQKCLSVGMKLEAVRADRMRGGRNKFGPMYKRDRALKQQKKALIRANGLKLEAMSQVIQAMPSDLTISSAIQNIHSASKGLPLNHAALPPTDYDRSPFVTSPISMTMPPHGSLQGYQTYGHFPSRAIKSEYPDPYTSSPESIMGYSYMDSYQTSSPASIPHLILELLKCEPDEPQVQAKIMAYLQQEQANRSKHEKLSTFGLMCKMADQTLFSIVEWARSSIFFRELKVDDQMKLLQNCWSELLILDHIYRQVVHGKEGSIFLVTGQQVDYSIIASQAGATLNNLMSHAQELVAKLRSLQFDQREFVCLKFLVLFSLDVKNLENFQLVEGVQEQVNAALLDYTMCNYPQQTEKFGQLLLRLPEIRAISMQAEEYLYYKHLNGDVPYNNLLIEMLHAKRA
Sequence of Photoreceptor-specific nuclear receptor (Q9Y5X4 whole entry, the tested form may be a part): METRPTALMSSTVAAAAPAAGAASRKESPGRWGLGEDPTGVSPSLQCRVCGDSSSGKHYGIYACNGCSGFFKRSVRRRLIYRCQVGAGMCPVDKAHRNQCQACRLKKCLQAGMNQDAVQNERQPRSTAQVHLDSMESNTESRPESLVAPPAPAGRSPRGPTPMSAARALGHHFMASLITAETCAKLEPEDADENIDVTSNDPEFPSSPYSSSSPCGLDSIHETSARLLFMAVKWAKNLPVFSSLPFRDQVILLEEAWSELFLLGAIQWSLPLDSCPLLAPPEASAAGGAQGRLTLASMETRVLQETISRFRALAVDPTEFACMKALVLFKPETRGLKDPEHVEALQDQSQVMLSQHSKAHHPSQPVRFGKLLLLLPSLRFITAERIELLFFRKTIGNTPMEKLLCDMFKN
Sequence of Cytochrome P450 2C9 (P11712 whole entry, the tested form may be a part): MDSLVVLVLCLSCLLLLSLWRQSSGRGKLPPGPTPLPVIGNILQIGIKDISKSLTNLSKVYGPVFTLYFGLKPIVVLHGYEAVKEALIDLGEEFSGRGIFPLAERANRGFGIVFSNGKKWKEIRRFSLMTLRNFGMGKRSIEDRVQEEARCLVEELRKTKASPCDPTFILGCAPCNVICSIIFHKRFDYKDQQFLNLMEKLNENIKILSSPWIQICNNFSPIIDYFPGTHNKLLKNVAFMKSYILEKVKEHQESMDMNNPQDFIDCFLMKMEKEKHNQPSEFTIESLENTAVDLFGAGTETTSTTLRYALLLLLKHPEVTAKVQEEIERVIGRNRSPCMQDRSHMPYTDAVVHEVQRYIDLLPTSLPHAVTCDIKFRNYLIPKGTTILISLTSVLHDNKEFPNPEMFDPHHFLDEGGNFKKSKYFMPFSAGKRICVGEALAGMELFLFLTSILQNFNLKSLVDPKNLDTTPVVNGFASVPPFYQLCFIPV

In the case of CCCCCCC[C@@H](C/C=C/CCC(=O)N(C)C/C(=C/Cl)C/C(=C\C(=O)N1CC(OC)=CC1=O)OC)OC, the AC50 [1] is reported as 4.12 µM (active), the IC50 [2] is reported as > 67.5 µM (inactive) and the IC50 [3] is reported as > 0.278 µM (active).
For CCNC(=O)NC(=O)COC(=O)c1ccccc1SCC(=O)NC(=O)NCC, the IC50 [4] was 0.969 µM (active).
In the case of COc1cccc(NC(=O)[C@H](NC(=O)[C@@H]2Cc3ccccc3CN2)c2ccccc2)c1, the IC50 [2] is reported as > 67.5 µM (inactive) and the IC50 [3] is reported as > 67.5 µM (inactive).
With O=C1CCN(CCc2ccccc2)CCN1[C@H](COc1ccccc1)c1ccccc1 the AC50 [5] was 21.8 µM (active).
With CCOc1ccc(NC(=O)COC(=O)COc2cccc3c2OC(C)(C)C3)cc1 the IC50 [6] was 2.55 µM (active), the IC50 [7] was 15.5 µM (inactive) and the IC50 [8] was 35.9 µM (inactive).
In the case of C=CCNc1nc(Nc2ccc(-c3nc4ccccc4o3)cc2)nc(N2CCOCC2)n1, the CC50 [9] is reported as 27.3 µM (active), the EC50 [10] is reported as 43.5 µM (active) and the IC50 [4] is reported as 0.213 µM (active).
With CC(C)(Oc1ccc(Cl)cc1)C(=O)OCC(=O)NCCc1ccccc1 the IC50 [6] was 6.16 µM (active), the IC50 [7] was 5.98 µM (active) and the IC50 [8] was 35.9 µM (inactive).
With O=C1NC(=S)N/C1=C/c1cccc([N+](=O)[O-])c1O the AC50 [11] was 12.6 µM (inconclusive) and the IC50 [12] was 37.4 µM (inactive).
With CC(NCC#Cc1ccccc1)C(O)c1ccccc1 (centres undefined) the EC50 [13] was > 29.9 µM (inactive) and the IC50 [14] was > 29.9 µM (inactive).
In the case of CCN(CC)S(=O)(=O)c1cc(NC(=O)CNc2cccc(S(=O)(=O)N3CCOCC3)c2)ccc1C, the EC50 [13] is reported as > 29.9 µM (inactive), the IC50 [14] is reported as 0.449 µM (active) and the AC50 [15] is reported as 2.97 µM (active). For the same compound, the AC50 [16] was 2.17 µM (active) and the AC50 [17] was 1.89 µM (active).
With COc1ccc(S(=O)(=O)N2CCCCC2)cc1N=C(S)Nc1ccccc1 the IC50 [18] was 1.22 µM (active).
For NC(=O)CCCn1c(C(=O)c2cc(Cl)c(N)c(Cl)c2)c2ccc(C(F)(F)F)cc2[n+]1[O-], the IC50 [19] was 4.22 µM (active), the AC50 [20] was 3.5 µM (active) and the IC50 [21] was > 20 µM (inactive). The IC50 [22] was 4.47 µM (active).
For CCC(C)NC(=O)c1ccc2c(c1)N(Cc1ccccc1)C(=O)CS2 (centres undefined), the IC50 [6] was 5.68 µM (active), the IC50 [7] was 16.3 µM (inactive) and the IC50 [8] was 35.9 µM (inactive).
For CCNc1cc(Cl)nc(SC)n1, the IC50 [19] was 1.79 µM (active) and the IC50 [22] was 4.88 µM (active).
With CCOC(=O)CC[C@H](NC(=O)Cn1cnc2c(OCc3ccccc3)ncnc21)C(=O)OCC the AC50 [5] was 36 µM (active).
For COc1ccc(NC(=O)c2sc(=O)n(Cc3cccc(C(F)(F)F)c3)c2C)cc1OC, the IC50 [18] was 13.9 µM (inactive).
With C/C=C/C1=CC(=O)C(O)C1O (centres undefined) the GI50 [23] was 17.9 µM (inactive), the GI50 [24] was 28.1 µM (inactive) and the GI50 [25] was 15 µM (inactive).
With O=C1c2ccccc2/C(=C\c2ccc(Br)nc2)N1c1ccccc1 the AC50 [5] was 38.8 µM (active).
With O=c1oc2ccccc2cc1-c1ccccc1 the IC50 [4] was 2.78 µM (active).
With CNC(=O)[C@H]1O[C@@H](n2cnc3c(NCc4cccc(I)c4)ncnc32)[C@H](O)[C@@H]1O [IB-MECA] the IC50 [19] was 1.83 µM (active) and the IC50 [22] was 2.37 µM (active).
